Results as given in US7906655B2, “Hepatitis C virus inhibitors” (Bristol-Myers Squibb Company, priority 2008, dated 2011).

test system: HCV 1b genotype; test: HCV Replicon assay (HCV-neo replicon cells, wild-type); type: cell-based; settings: HCV 1b genotype replicon; class symbols
Outline: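 Assay used wild-type HCV genotype 1b replicon cells carrying neo, with luciferase reporter read-outs in some formats.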

Which EC50 does the source give for `COc1ccc(C)cc1C(=O)N1CCC[C@H]1c1nc2ccc(C#Cc3ccc4[nH]c([C@@H]5CCCN5C(=O)[C@H]5CCCO5)nc4c3)cc2[nH]1` [Example M54.14, 5-((2S-((2S)-1-(2-methoxy-5-methylbenzoyl)-2-pyrrolidinyl)-1H-benzimidazol-6-yl)ethynyl)-2-((2S)-1-((2R)-tetrahydro-2-furanylcarbonyl)-2-pyrrolidinyl)-1H-benzimidazole] here?
Its EC50 is 100 to 999 nM.

How did the EC50 turn out when `CC(=O)N1CCC[C@H]1c1nc2ccc(C#Cc3ccc4[nH]c([C@@H]5CCCN5C(=O)Cc5ccccn5)nc4c3)cc2[nH]1` [Example M54.20, 5-((2-((2S)-1-acetyl-2-pyrrolidinyl)-1H-benzimidazol-6-yl)ethynyl)-2-((2S)-1-(2-pyridinylacetyl)-2-pyrrolidinyl)-1H-benzimidazole] was run?
Its EC50 is 4.57 to 99 nM.

same assay, conditions: Hepatitis C virus, HCV 1b genotype replicon; class symbols

Which EC50 does the source give for `O=C(c1ccccc1NCc1ccccc1)N1CCC[C@H]1c1nc2cc(C#Cc3ccc4[nH]c([C@@H]5CCCN5C(=O)[C@H]5CCCO5)nc4c3)ccc2[nH]1` [Example M54.13, N-benzyl-2-(((2S)-2-(5-((2-((2S)-1-((2R)-tetrahydro-2-furanylcarbonyl)-2-pyrrolidinyl)-1H-benzimidazol-5-yl)ethynyl)-1H-benzimidazol-2-yl)-1-pyrrolidinyl)carbonyl)aniline] here?
Its EC50 is 100 to 999 nM.

With `O=C(CCOc1ccccc1)N1CCC[C@H]1c1nc2ccc(C#Cc3ccc4[nH]c([C@@H]5CCCN5C(=O)[C@H]5CCCO5)nc4c3)cc2[nH]1` [Example M54.15, 5-((2-((2S)-1-(3-phenoxypropanoyl)-2-pyrrolidinyl)-1H-benzimidazol-6-yl)ethynyl)-2-((2S)-1-((2R)-tetrahydro-2-furanylcarbonyl)-2-pyrrolidinyl)-1H-benzimidazole] as the compound, how does the EC50 read?
The EC50 was 4.57 to 99 nM.

With `CC(=O)N1CCC[C@H]1c1nc2ccc(C#Cc3ccc4[nH]c([C@@H]5CCCN5C(=O)Cc5ccccc5)nc4c3)cc2[nH]1` [Example M54.16, 5-((2-((2S)-1-acetyl-2-pyrrolidinyl)-1H-benzimidazol-6-yl)ethynyl)-2-((2S)-1-(phenylacetyl)-2-pyrrolidinyl)-1H-benzimidazole] as the compound, how does the EC50 read?
Its EC50 is 4.57 to 99 nM.

`COc1cccc(CC(=O)N2CCC[C@H]2c2nc3cc(C#Cc4ccc5nc([C@@H]6CCCN6C(C)=O)[nH]c5c4)ccc3[nH]2)c1` [Example M54.17, 5-((2-((2S)-1-acetyl-2-pyrrolidinyl)-1H-benzimidazol-6-yl)ethynyl)-2-((2S)-1-((3-methoxyphenyl)acetyl)-2-pyrrolidinyl)-1H-benzimidazole] was tested. Which EC50 did it give?
The EC50 was 4.57 to 99 nM.

With `CC(=O)N1CCC[C@H]1c1nc2ccc(C#Cc3ccc4[nH]c([C@@H]5CCCN5C(=O)c5ccccc5)nc4c3)cc2[nH]1` [Example M54.18, 5-((2-((2S)-1-acetyl-2-pyrrolidinyl)-1H-benzimidazol-6-yl)ethynyl)-2-((2S)-1-benzoyl-2-pyrrolidinyl)-1H-benzimidazole] as the compound, how does the EC50 read?
Its EC50 is 4.57 to 99 nM.

Which EC50 does the source give for `CCc1ccccc1C(=O)N1CCC[C@H]1c1nc2cc(C#Cc3ccc4nc([C@@H]5CCCN5C(C)=O)[nH]c4c3)ccc2[nH]1` [Example M54.19, 5-((2-((2S)-1-acetyl-2-pyrrolidinyl)-1H-benzimidazol-6-yl)ethynyl)-2-((2S)-1-(2-ethylbenzoyl)-2-pyrrolidinyl)-1H-benzimidazole] here?
The EC50 was 100 to 999 nM.

`CC(=O)N1CCC[C@H]1c1nc2ccc(C#Cc3ccc4[nH]c([C@@H]5CCCN5C(=O)Cc5cccnc5)nc4c3)cc2[nH]1` [Example M54.21, 5-((2-((2S)-1-acetyl-2-pyrrolidinyl)-1H-benzimidazol-6-yl)ethynyl)-2-((2S)-1-(3-pyridinylacetyl)-2-pyrrolidinyl)-1H-benzimidazole] was tested. Which EC50 did it give?
Its EC50 is 4.57 to 99 nM.

For `CC(=O)N1CCC[C@H]1c1nc2ccc(C#Cc3ccc4[nH]c([C@@H]5CCCN5C(=O)c5cccnc5)nc4c3)cc2[nH]1` [Example M54.22, 5-((2-((2S)-1-acetyl-2-pyrrolidinyl)-1H-benzimidazol-6-yl)ethynyl)-2-((2S)-1-(3-pyridinylcarbonyl)-2-pyrrolidinyl)-1H-benzimidazole], which EC50 is on record?
Its EC50 is 100 to 999 nM.

How did the EC50 turn out when `CC(=O)N1CCC[C@H]1c1nc2ccc(C#Cc3ccc4[nH]c([C@@H]5CCCN5C(=O)Cc5cccs5)nc4c3)cc2[nH]1` [Example M54.23, 5-((2-((2S)-1-acetyl-2-pyrrolidinyl)-1H-benzimidazol-6-yl)ethynyl)-2-((2S)-1-(2-thienylacetyl)-2-pyrrolidinyl)-1H-benzimidazole] was run?
The EC50 was 4.57 to 99 nM.

How did the EC50 turn out when `CC(=O)N1CCC[C@H]1c1nc2ccc(C#Cc3ccc4[nH]c([C@@H]5CCCN5C(=O)c5cccs5)nc4c3)cc2[nH]1` [Example M54.24, 5-((2-((2S)-1-acetyl-2-pyrrolidinyl)-1H-benzimidazol-6-yl)ethynyl)-2-((2S)-1-(2-thienylcarbonyl)-2-pyrrolidinyl)-1H-benzimidazole] was run?
The EC50 was 4.57 to 99 nM.

Which EC50 does the source give for `CC(=O)N1CCC[C@H]1c1nc2ccc(C#Cc3ccc4[nH]c([C@@H]5CCCN5C(=O)[C@H]5CCCO5)nc4c3)cc2[nH]1` [Example M54.25, 5-((2-((2S)-1-acetyl-2-pyrrolidinyl)-1H-benzimidazol-6-yl)ethynyl)-2-((2S)-1-((2R)-tetrahydro-2-furanylcarbonyl)-2-pyrrolidinyl)-1H-benzimidazole] here?
The EC50 was 100 to 999 nM.

`CC(=O)N1CCC[C@H]1c1nc2cc(C#Cc3ccc4[nH]c([C@@H]5CCCN5C(=O)OCc5ccccc5)nc4c3)ccc2[nH]1` [Example M54.26, benzyl (2S)-2-(5-((2-((2S)-1-acetyl-2-pyrrolidinyl)-1H-benzimidazol-5-yl)ethynyl)-1H-benzimidazol-2-yl)-1-pyrrolidine-carboxylate] was tested. Which EC50 did it give?
Its EC50 is 4.57 to 99 nM.

With `CC(=O)N1CCC[C@H]1c1nc2ccc(C#Cc3ccc4[nH]c([C@@H]5CCCN5C(=O)[C@@H]5CCCN5C)nc4c3)cc2[nH]1` [Example M54.27, 5-((2-((2S)-1-acetyl-2-pyrrolidinyl)-1H-benzimidazol-6-yl)ethynyl)-2-((2S)-1-(1-methyl-L-prolyl)-2-pyrrolidinyl)-1H-benzimidazole] as the compound, how does the EC50 read?
Its EC50 is 1000 to 10000 nM.

With `CC(=O)N1CCC[C@H]1c1nc2cc(C#Cc3ccc4nc([C@@H]5CCCN5C(C)=O)[nH]c4c3)ccc2[nH]1` [Example M54.28, 2-((2S)-1-acetyl-2-pyrrolidinyl)-5-((2-((2S)-1-acetyl-2-pyrrolidinyl)-1H-benzimidazol-6-yl)ethynyl)-1H-benzimidazole] as the compound, how does the EC50 read?
The EC50 was 100 to 999 nM.

With `CCC(=O)N1CCC[C@H]1c1nc2cc(C#Cc3ccc4nc([C@@H]5CCCN5C(C)=O)[nH]c4c3)ccc2[nH]1` [Example M54.29, 5-((2-((2S)-1-acetyl-2-pyrrolidinyl)-1H-benzimidazol-6-yl)ethynyl)-2-((2S)-1-propionyl-2-pyrrolidinyl)-1H-benzimidazole] as the compound, how does the EC50 read?
The EC50 was 100 to 999 nM.

With `CC(=O)N1CCC[C@H]1c1nc2ccc(C#Cc3ccc4[nH]c([C@@H]5CCCN5C(=O)C5CC5)nc4c3)cc2[nH]1` [Example M54.30, 5-((2-((2S)-1-acetyl-2-pyrrolidinyl)-1H-benzimidazol-6-yl)ethynyl)-2-((2S)-1-(cyclopropyl-carbonyl)-2-pyrrolidinyl)-1H-benzimidazole] as the compound, how does the EC50 read?
Its EC50 is 100 to 999 nM.

For `CC(=O)N1CCC[C@H]1c1nc2ccc(C#Cc3ccc4[nH]c([C@@H]5CCCN5C(=O)C5CCC5)nc4c3)cc2[nH]1` [Example M54.31, 5-((2-((2S)-1-acetyl-2-pyrrolidinyl)-1H-benzimidazol-6-yl)ethynyl)-2-((2S)-1-(cyclobutyl-carbonyl)-2-pyrrolidinyl)-1H-benzimidazole], which EC50 is on record?
Its EC50 is 4.57 to 99 nM.

`CC(=O)N1CCC[C@H]1c1nc2ccc(C#Cc3ccc4[nH]c([C@@H]5CCCN5C(=O)CC5CC5)nc4c3)cc2[nH]1` [Example M54.32, 5-((2-((2S)-1-acetyl-2-pyrrolidinyl)-1H-benzimidazol-6-yl)ethynyl)-2-((2S)-1-(cyclopropyl-acetyl)-2-pyrrolidinyl)-1H-benzimidazole] was tested. Which EC50 did it give?
Its EC50 is 4.57 to 99 nM.

`CC(=O)N1CCC[C@H]1c1nc2ccc(C#Cc3ccc4[nH]c([C@@H]5CCCN5C(=O)N5CCOCC5)nc4c3)cc2[nH]1` [Example M54.33, 5-((2-((2S)-1-acetyl-2-pyrrolidinyl)-1H-benzimidazol-6-yl)ethynyl)-2-((2S)-1-(4-morpholinyl-carbonyl)-2-pyrrolidinyl)-1H-benzimidazole] was tested. Which EC50 did it give?
Its EC50 is 4.57 to 99 nM.

How did the EC50 turn out when `CC(=O)N1CCC[C@H]1c1nc2ccc(C#Cc3ccc4[nH]c([C@@H]5CCCN5C(=O)N5CCN(C)CC5)nc4c3)cc2[nH]1` [Example M55, 5-((2-((2S)-1-acetyl-2-pyrrolidinyl)-1H-benzimidazol-6-yl)ethynyl)-2-((2S)-1-((4-methyl-1-piperazinyl)carbonyl)-2-pyrrolidinyl)-1H-benzimidazole] was run?
The EC50 was 100 to 999 nM.

Which EC50 does the source give for `CC(=O)N1CCC[C@H]1c1nc2cc(C#Cc3ccc4[nH]c([C@@H]5CCCN5C(=O)[C@@H](c5ccccc5)N(C)C)nc4c3)ccc2[nH]1` [Example M56, (1R)-2-((2S)-2-(5-((2-((2S)-1-acetyl-2-pyrrolidinyl)-1H-benzimidazol-5-yl)ethynyl)-1H-benzimidazol-2-yl)-1-pyrrolidinyl)-N,N-dimethyl-2-oxo-1-phenyl-ethanamine] here?
The EC50 was < 4.57 nM.

How did the EC50 turn out when `O=C(Cc1ccccc1)N1CCC[C@H]1c1nc2cc(C#CC#Cc3ccc4[nH]c([C@@H]5CCCN5C(=O)Cc5ccccc5)nc4c3)ccc2[nH]1` [Example M57, 5,5′-(1,3-butadiyne-1,4-diyl)bis(2-((2S)-1-(phenylacetyl)-2-pyrrolidinyl)-1H-benzimidazole)] was run?
Its EC50 is < 4.57 nM.

Which EC50 does the source give for `COC(=O)N[C@H](C(=O)N1CCC[C@H]1c1nc2cc(C#CC#Cc3ccc4[nH]c([C@@H]5CCCN5C(=O)[C@@H](NC(=O)OC)C(C)C)nc4c3)ccc2[nH]1)C(C)C` [Example M57.1, Methyl((1S)-1-(((2S)-2-(5-(4-(2-((2S)-1-((2S)-2-((methoxycarbonyl)amino)-3-methylbutanoyl)-2-pyrrolidinyl)-1H-benzimidazol-5-yl)-1,3-butadiyn-1-yl)-1H-benzimidazol-2-yl)-1-pyrrolidinyl)carbonyl)-2-methylpropyl)carbamate] here?
Its EC50 is < 4.57 nM.
